According to US20220107328A1, “METHODS OF TREATING LIVER DISEASES” (Camp4 Therapeutics Corporation, priority 2018, published 2022):
Counter-ions that a name gives are not always drawn.

Assays:
PNPLA3 mRNA [1] = assay: qRT-PCR of PNPLA3 mRNA in compound-treated primary human hepatocytes; details: for Primary Hepatocytes 4178 PNPLA3 (fold change in mRNA expression): donor 4178, 3 μM; for Primary Hepatocytes 4178 PNPLA3 (fold change in mRNA expression) / Primary Hepatocytes 4282 PNPLA3 (fold change in mRNA expression): relative to GUSB; for Primary Hepatocytes 4282 PNPLA3 (fold change in mRNA expression): donor 4282, 3 μM; for Relative PINPLA3 mRNA: hepatocytes; for PNPLA3 expression by reported compound specificity (in words): summary of mTOR/PI3K inhibitor testing
Procedure: Cryopreserved hepatocytes were cultured in plating media for 16 hours, transferred to maintenance media for 4 hours. Cultured on serum-free media for 2 hours, then a compound was added. The hepatocytes were maintained on the serum-free media for 16 hours prior to gene expression analysis.
Human hepatocytes cultured as described above were plated in 24-well format, adding 375,000 cells per well in a volume of 500 μl plating medium. Four hours before treatment, cells were washed with PBS and the medium was changed to either: fresh maintenance medium (complete) or modified maintenance medium.
Compound stocks were prepared at 1000× final concentration and added in a 2-step dilution to the medium to reduce risk of a compound precipitating out of solution when added to the cells, and to ensure reasonable pipetting volumes. One at a time, each compound was first diluted 10-fold in warm (about 37° C.) modified maintenance medium (initial dilution=ID), mixed by vortexing, and the ID was diluted 100-fold into the cell culture (e.g. 5.1 μl into 1 well of a 24-well plate containing 0.5 mL medium). The plate was mixed by carefully swirling and after all wells were treated and returned to the incubator overnight. If desired, separate plates/wells were treated with vehicle-only controls and/or positive controls. If using multi-well plates, controls were included on each plate. After about 18 hours, cells were harvested for further analysis, e.g., ChIP-seq, RNA-seq, ATAC-seq, etc.
Analysis of the fold changes in expression as measured by qRT-PCR were performed using the technique below. The control was DMSO, and the treatment was the selected compound (CPD). The internal control was GAPDH or B-Actin (or otherwise indicated), and the gene of interest is the target. First, the averages of the 4 conditions were calculated for normalization: DMSO:GAPDH, DMSO:Target, CPD: GAPDH, and CPD:Target. Next, the ΔCT of both control and treatment were calculated to normalize to internal control (GAPDH) using (DMSO:Target)−(DMSO:GAPDH)=ΔCT control and (CPD:Target)−(CPD: GAPDH)=ΔCT experimental. Then, the ΔΔCT was calculated by ΔCT experimental−ΔCT control. The Expression Fold Change (or Relative Quantification, abbreviated as RQ) was calculated by 2−(ΔΔCT) (2-fold expression change was shown by RNA-Seq results provided herein).
The aim of the validation studies was to test the identified compounds from key pathways, and expand the compound franchise to identify other potential hits. Candidate compounds were subjected to validation with qRT-PCR in human hepatocytes. qRT-PCR was performed on samples of primary human hepatocytes from a second donor treated with the candidate compounds. Compounds were tested at concentrations ranging from 0.01 μM to 50 μM, with the majority tested at 10 μM.
Primary human hepatocytes and stellate cells were also incubated with inhibitors of the TGFβ pathway and PNPLA3 gene expression changes assessed via qRT-PCR as previously described. In addition, primary hepatocytes and stellate cells were treated with TGFβ-ligand alone or with selected the small molecule inhibitors for 18 hours and subsequently harvested. for gene expression assays.
The other set was harvest for mRNA processing as previously described.

PNPLA3 mRNA [2] = assay: qRT-PCR of PNPLA3 mRNA in human primary hepatic stellate cells; format: cell-based; details: 3 μM, relative to GAPDH
COL1A1 mRNA = assay: qRT-PCR of COL1A1 mRNA in human primary hepatic stellate cells; format: cell-based; details: 3 μM, relative to GAPDH
PCSK9 mRNA = assay: qRT-PCR of PCSK9 mRNA in primary hepatocytes; format: cell-based, human; details: donor 4178, 3 μM, relative to GUSB
PNPLA3 mRNA [3] = assay: qRT-PCR of PNPLA3 mRNA in compound-treated mouse hepatocytes; format: cell-based; details: mouse hepatocytes, 1 μM, normalized to ACTB

SMILES | Primary Hepatocytes 4178 PNPLA3 (fold change in mRNA expression) (PNPLA3 mRNA [1]) | Primary Hepatocytes 4282 PNPLA3 (fold change in mRNA expression) (PNPLA3 mRNA [1]) | Primary Hepatocytes 4178 PCSK9 (fold change in mRNA expression) (PCSK9 mRNA) | Primary Stellate cells PNPLA3 (fold change in mRNA expression) (PNPLA3 mRNA [2]) | Primary Stellate cells COL1A1 (fold change in mRNA expression) (COL1A1 mRNA) | also measured
Cc1c(CN2CCN(C(=O)[C@H](C)O)CC2)sc2c(N3CCOCC3)nc(-c3cnc(N)nc3)nc12 [Apitolisib (GDC-0980, RG7422)] | 0.32 | 0.46 | 0.31 | 0.56 | 0.54 | –
Cc1c(CN2CCN(C(=O)[C@H](C)O)CC2)sc2c(N3CCOCC3)nc(-c3cnc(N)nc3)nc12 [Apitolisib] | – | – | – | – | – | Primary Hepatocytes 4178 PNPLA3 (fold change in mRNA expression) (PNPLA3 mRNA [1]; listed as GDC-0980): 0.37; Primary Hepatocytes 4282 PNPLA3 (fold change in mRNA expression) (PNPLA3 mRNA [1]; listed as GDC-0980): 0.40; Relative PINPLA3 mRNA (PNPLA3 mRNA [1]; 0.1 uM): 0.893; Relative PINPLA3 mRNA (PNPLA3 mRNA [1]; 0.3 uM): 0.669; Relative PINPLA3 mRNA (PNPLA3 mRNA [1]; 1 uM): 0.420; Relative PINPLA3 mRNA (PNPLA3 mRNA [1]; 3 uM): 0.365; PNPLA3 expression by reported compound specificity (in words) (PNPLA3 mRNA [1]): most robust PNPLA3 inhibition; Primary Stellate cells PNPLA3 (fold change in mRNA expression) (PNPLA3 mRNA [2]; listed as GDC-0980): 0.67; Primary Stellate cells COL1A1 (fold change in mRNA expression) (COL1A1 mRNA; listed as GDC-0980): 0.61; Primary Hepatocytes 4178 PCSK9 (fold change in mRNA expression) (PCSK9 mRNA; listed as GDC-0980): 0.40
Cc1nc(NC(=O)N2CCC[C@H]2C(N)=O)sc1-c1ccnc(C(C)(C)C(F)(F)F)c1 [BYL-719] | 0.69 | 0.60 | 0.71 | 0.70 | 1.24 | –
Nc1cc(C(F)(F)F)c(-c2cc(N3CCOCC3)nc(N3CCOCC3)n2)cn1 [Buparlisib (BKN120, NVE-BKM120)] | 0.52 | 0.60 | 0.46 | 0.50 | 0.81 | –
CO[C@H]1CC[C@H](N2C(=O)CNc3ncc(-c4ccc(C(C)(C)O)nc4)nc32)CC1 [CC-223] | 0.51 | 0.80 | 0.72 | 0.33 | 0.50 | –
COc1ccc(-c2nc(N3CCOCC3)c3sc(CN(C)c4ncc(C(=O)NO)cn4)cc3n2)cn1 [CUDC-907] | 0.50 | 0.50 | 0.83 | 1.33 | 0.41 | –
CO[C@H]1C[C@@H]2CC[C@@H](C)[C@@](O)(O2)C(=O)C(=O)N2CCCC[C@H]2C(=O)O[C@H]([C@H](C)C[C@@H]2CC[C@@H](OP(C)(C)=O)[C@H](OC)C2)CC(=O)[C@H](C)/C=C(\C)[C@@H](O)[C@@H](OC)C(=O)[C@H](C)C[C@H](C)/C=C/C=C/C=C/1C [Deforolimus] | – | – | – | – | – | Relative PNPLA3 mRNA levels (PNPLA3 mRNA [3]): 0.30 ± 0.10
Cn1cc(-c2nc(N[C@@H]3CCCC[C@@H]3N)c(F)c3c2C(=O)NC3)cn1 [TAK-659] | – | – | – | – | – | Relative PNPLA3 mRNA levels (PNPLA3 mRNA [1]; Syk pathway inhibitors, 10 μM, human hepatocytes, normalized to B2M, mean of three replicates ± standard deviation): 0.44 ± 0.11; Relative PNPLA3 mRNA levels (PNPLA3 mRNA [3]): 0.31 ± 0.12
CCn1c(=O)c(-c2cc[nH]n2)cc2c(C)nc(N)nc21 [Voxtalisib] | – | – | – | – | – | Relative PNPLA3 mRNA levels (PNPLA3 mRNA [3]): 0.31 ± 0.08
c1cncc(CN2CCC(n3ncc4c(N5CCOCC5)nc(-c5ccc6[nH]ccc6c5)nc43)CC2)c1 [WAY600] | – | – | – | – | – | Relative PNPLA3 mRNA levels (PNPLA3 mRNA [3]): 0.67 ± 0.21
CC(C)Oc1ccc(-c2nn([C@@H](C)c3oc4ccc(F)cc4c(=O)c3-c3cccc(F)c3)c3ncnc(N)c23)cc1F [umbralisib (TGR-1202)] | 0.90 | 0.80 | 0.80 | 1.10 | 1.15 | –

Further lines, with some results ahead:

Primary Hepatocytes 4178 PNPLA3 (fold change in mRNA expression) (PNPLA3 mRNA [1]) | Primary Hepatocytes 4282 PNPLA3 (fold change in mRNA expression) (PNPLA3 mRNA [1]) | Primary Hepatocytes 4178 PCSK9 (fold change in mRNA expression) (PCSK9 mRNA) | SMILES | Primary Stellate cells PNPLA3 (fold change in mRNA expression) (PNPLA3 mRNA [2]) | Primary Stellate cells COL1A1 (fold change in mRNA expression) (COL1A1 mRNA) | also measured
1.10 | 1.00 | 1.01 | O=C1OC(COc2ccccc2[N+](=O)[O-])CC1Cc1ccccc1 (centres unmarked) [Compound 3BDO] | 0.91 | 1.03 | –
0.58 | 0.60 | 0.47 | Cc1nc(-c2cn3c(n2)-c2ccc(-c4cnn(C(C)(C)C(N)=O)c4)cc2OCC3)n(C(C)C)n1 [GDC-0032] | 0.61 | 1.05 | –
0.92 | 0.80 | 0.91 | COc1ncc(-c2ccc3nccc(-c4ccnnc4)c3c2)cc1NS(=O)(=O)c1ccc(F)cc1F [GSK2126458] | 0.90 | 0.42 | Relative PINPLA3 mRNA (PNPLA3 mRNA [1]; 1 uM): 0.395; Relative PINPLA3 mRNA (PNPLA3 mRNA [1]; 10 uM): 0.800
0.68 | 0.68 | 0.74 | C[C@H](NC(=O)c1c(N)nn2cccnc12)c1cc2cccc(C#Cc3cnn(C)c3)c2c(=O)n1-c1ccccc1 [IPI-549] | 0.75 | 1.00 | –
0.80 | 1.00 | 0.65 | CO[C@@H](C)Cn1c(=O)n(C)c2cnc3ccc(-c4cncc(C(C)(C)O)c4)cc3c21 [LY3023414] | 0.94 | 0.49 | –
1.10 | 1.20 | 1.04 | O=[N+]([O-])c1ccc(Nc2nc(N3CCOCC3)nc(N3CCOCC3)n2)cc1 [MHY1485] | 0.86 | 0.87 | –
1.57 | 0.97 | 0.69 | Nc1nc2cc(-c3ccc4ncc(C(=O)N5CCOCC5)n4c3)ccc2o1 [MLN1117] | 0.70 | 1.14 | –
0.56 | 0.70 | 0.50 | Nc1cc(C(F)(F)F)c(-c2cc(N3CCOCC3)nc(N3CCOCC3)n2)cn1 [NVP-BKM120 (Hydrochloride)] | 0.43 | 0.70 | –
0.60 | 0.70 | 0.75 | Nc1cc(C(F)(F)F)c(-c2cc(N3CCOCC3)nc(N3CCOCC3)n2)cn1 [NVP-BKM120] | 0.43 | 0.66 | –
0.47 | 0.60 | 0.50 | Nc1cc(C(F)(F)F)c(-c2nc(N3CCOCC3)nc(N3CCOCC3)n2)cn1 [PQR309] | 0.88 | 0.81 | Relative PINPLA3 mRNA (PNPLA3 mRNA [1]; 0.1 uM): 1.353; Relative PINPLA3 mRNA (PNPLA3 mRNA [1]; 0.3 uM): 0.8236; Relative PINPLA3 mRNA (PNPLA3 mRNA [1]; 1 uM): 0.5267; Relative PINPLA3 mRNA (PNPLA3 mRNA [1]; 3 uM): 0.4657; PNPLA3 expression by reported compound specificity (in words) (PNPLA3 mRNA [1]): most robust PNPLA3 inhibition
1.16 | 0.93 | 0.95 | O=c1c(O)c(-c2ccc(O)c(O)c2)oc2cc(O)cc(O)c12 [Quercetin] | 1.11 | 0.94 | –
1.10 | 0.94 | 1.11 | CCOC(=O)C1=C(N)Oc2ccc(Cl)cc2C1C(C#N)C(=O)OCC (centres unmarked) [SC79] | 0.85 | 0.98 | –
0.72 | 0.62 | 0.67 | Cc1nc(-c2cn3c(n2)-c2ccc(-c4cnn(C(C)(C)C(N)=O)c4)cc2OCC3)n(C(C)C)n1 [Taselisib (GDC 0032)] | 0.77 | 1.32 | –
0.60 | 0.80 | 0.66 | FC(F)c1nc2ccccc2n1-c1nc(N2CCOCC2)nc(N2CCOCC2)n1 [ZSTK474] | 0.68 | 0.71 | –
